Reference: PubChem BioAssay (NCI)
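All cell lines were grown in 96-well plates and treated with compound for 48 hours. TGI marks complete inhibition of growth.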

Legend:
Test in all cases: growth of human tumour cells (NCI), 48 h
SW-620 colon = test system: SW-620 colon
CAKI-1 renal = test system: CAKI-1 renal
ACHN renal = test system: ACHN renal
IGROV1 ovarian = test system: IGROV1 ovarian
MDA-N = test system: MDA-N
MOLT-4 leukemia = test system: MOLT-4 leukemia
MDA-MB-231 breast = test system: MDA-MB-231 breast
K-562 leukemia = test system: K-562 leukemia
HL-60(TB) leukemia = test system: HL-60(TB) leukemia
CCRF-CEM leukemia = test system: CCRF-CEM leukemia
HS 578T breast = test system: HS 578T breast
EKVX NSCLC = test system: EKVX NSCLC
COLO 205 colon = test system: COLO 205 colon
SN12C renal = test system: SN12C renal
MCF7 breast = test system: MCF7 breast
HT29 colon = test system: HT29 colon
HCC-2998 colon = test system: HCC-2998 colon
HOP-92 NSCLC = test system: HOP-92 NSCLC
UACC-62 melanoma = test system: UACC-62 melanoma
M14 melanoma = test system: M14 melanoma
OVCAR-4 ovarian = test system: OVCAR-4 ovarian
OVCAR-5 ovarian = test system: OVCAR-5 ovarian
HOP-62 NSCLC = test system: HOP-62 NSCLC
NCI-H522 lung = test system: NCI-H522 lung
TK-10 renal = test system: TK-10 renal
HCT-116 colon = test system: HCT-116 colon
MALME-3M melanoma = test system: MALME-3M melanoma
SF-539 CNS = test system: SF-539 CNS
SK-MEL-28 melanoma = test system: SK-MEL-28 melanoma
NCI-H226 lung = test system: NCI-H226 lung
UO-31 renal = test system: UO-31 renal
A549 NSCLC = test system: A549 NSCLC
OVCAR-3 ovarian = test system: OVCAR-3 ovarian
PC-3 prostate = test system: PC-3 prostate
LOX IMVI melanoma = test system: LOX IMVI melanoma
SK-OV-3 ovarian = test system: SK-OV-3 ovarian
DU-145 prostate = test system: DU-145 prostate
SR leukemia = test system: SR leukemia
786-0 renal = test system: 786-0 renal
U251 CNS = test system: U251 CNS
SNB-19 CNS = test system: SNB-19 CNS
KM12 colon = test system: KM12 colon
MDA-MB-435 = test system: MDA-MB-435
SF-295 CNS = test system: SF-295 CNS
NCI/ADR-RES ovarian = test system: NCI/ADR-RES ovarian
SF-268 CNS = test system: SF-268 CNS
SK-MEL-5 melanoma = test system: SK-MEL-5 melanoma
NCI-H23 lung = test system: NCI-H23 lung
RPMI-8226 leukemia = test system: RPMI-8226 leukemia
T-47D breast = test system: T-47D breast
UACC-257 melanoma = test system: UACC-257 melanoma
BT-549 breast = test system: BT-549 breast
OVCAR-8 ovarian = test system: OVCAR-8 ovarian
SK-MEL-2 melanoma = test system: SK-MEL-2 melanoma
NCI-H460 lung = test system: NCI-H460 lung
HCT-15 colon = test system: HCT-15 colon
SNB-75 CNS = test system: SNB-75 CNS
A498 renal = test system: A498 renal
RXF 393 renal = test system: RXF 393 renal

With Clc1ccc(Cc2nc3cc(Cl)ccc3o2)cc1 the TGI (SW-620 colon) was over 100 µM, the TGI (CAKI-1 renal) was over 100 µM and the TGI (ACHN renal) was over 100 µM. For the same molecule, the TGI (IGROV1 ovarian) was over 100 µM, the TGI (MDA-N) was over 100 µM and the TGI (MOLT-4 leukemia) was over 100 µM. It also gave a TGI (MDA-MB-231 breast) of over 100 µM, a TGI (K-562 leukemia) of over 100 µM and a TGI (HL-60(TB) leukemia) of over 100 µM. For the same molecule, the TGI (CCRF-CEM leukemia) was 92.3 µM, the TGI (HS 578T breast) was over 100 µM and the TGI (EKVX NSCLC) was 80.9 µM. It also gave a TGI (COLO 205 colon) of 87.4 µM, a TGI (SN12C renal) of over 100 µM and a TGI (MCF7 breast) of over 100 µM. It also gave a TGI (HT29 colon) of over 100 µM, a TGI (HCC-2998 colon) of 53.2 µM and a TGI (HOP-92 NSCLC) of over 100 µM. The TGI (UACC-62 melanoma) was over 100 µM, the TGI (M14 melanoma) was over 100 µM and the TGI (OVCAR-4 ovarian) was over 100 µM. For the same molecule, the TGI (OVCAR-5 ovarian) was over 100 µM, the TGI (HOP-62 NSCLC) was over 100 µM and the TGI (NCI-H522 lung) was 97 µM. The TGI (TK-10 renal) was over 100 µM, the TGI (HCT-116 colon) was over 100 µM and the TGI (MALME-3M melanoma) was over 100 µM. It also gave a TGI (SF-539 CNS) of over 100 µM, a TGI (SK-MEL-28 melanoma) of over 100 µM and a TGI (NCI-H226 lung) of over 100 µM. The TGI (UO-31 renal) was over 100 µM, the TGI (A549 NSCLC) was over 100 µM and the TGI (OVCAR-3 ovarian) was 70.9 µM. It also gave a TGI (PC-3 prostate) of over 100 µM, a TGI (LOX IMVI melanoma) of over 100 µM and a TGI (SK-OV-3 ovarian) of 68.7 µM. For the same molecule, the TGI (DU-145 prostate) was over 100 µM, the TGI (SR leukemia) was over 100 µM and the TGI (786-0 renal) was over 100 µM. The TGI (U251 CNS) was 91.2 µM, the TGI (SNB-19 CNS) was over 100 µM and the TGI (KM12 colon) was over 100 µM. The TGI (MDA-MB-435) was 95.6 µM, the TGI (SF-295 CNS) was 71.8 µM and the TGI (NCI/ADR-RES ovarian) was over 100 µM. The TGI (SF-268 CNS) was over 100 µM, the TGI (SK-MEL-5 melanoma) was 33.1 µM and the TGI (NCI-H23 lung) was over 100 µM. For the same molecule, the TGI (RPMI-8226 leukemia) was over 100 µM, the TGI (T-47D breast) was 97.9 µM and the TGI (UACC-257 melanoma) was 92.2 µM. The TGI (BT-549 breast) was over 100 µM, the TGI (OVCAR-8 ovarian) was over 100 µM and the TGI (SK-MEL-2 melanoma) was 35.4 µM. It also gave a TGI (NCI-H460 lung) of over 100 µM and a TGI (HCT-15 colon) of over 100 µM.
CCCCCCCCCCCCCCCCCCNc1nc(=O)n(C2CC(O)C(COP(=O)(O)OCC(COP(=O)(O)OC3C(CO)OC(n4ccc(N)nc4=O)C3O)OCCCCCCCCCCCCCCCCCC)O2)cc1F (stereo not given) was tested, and the TGI (SW-620 colon) was over 100 µM, the TGI (CAKI-1 renal) was over 100 µM and the TGI (ACHN renal) was over 100 µM. It also gave a TGI (IGROV1 ovarian) of over 100 µM, a TGI (MDA-N) of over 100 µM and a TGI (MOLT-4 leukemia) of over 100 µM. For the same molecule, the TGI (MDA-MB-231 breast) was over 100 µM, the TGI (SNB-75 CNS) was over 100 µM and the TGI (K-562 leukemia) was over 100 µM. It also gave a TGI (HL-60(TB) leukemia) of over 100 µM, a TGI (CCRF-CEM leukemia) of over 100 µM and a TGI (HS 578T breast) of over 100 µM. It also gave a TGI (EKVX NSCLC) of over 100 µM, a TGI (COLO 205 colon) of 37.7 µM and a TGI (SN12C renal) of over 100 µM. The TGI (MCF7 breast) was over 100 µM, the TGI (HT29 colon) was over 100 µM and the TGI (HCC-2998 colon) was over 100 µM. For the same molecule, the TGI (HOP-92 NSCLC) was over 100 µM, the TGI (UACC-62 melanoma) was over 100 µM and the TGI (M14 melanoma) was over 100 µM. For the same molecule, the TGI (OVCAR-4 ovarian) was over 100 µM, the TGI (OVCAR-5 ovarian) was over 100 µM and the TGI (HOP-62 NSCLC) was over 100 µM. It also gave a TGI (NCI-H522 lung) of over 100 µM, a TGI (TK-10 renal) of over 100 µM and a TGI (HCT-116 colon) of over 100 µM. The TGI (MALME-3M melanoma) was over 100 µM, the TGI (SF-539 CNS) was over 100 µM and the TGI (SK-MEL-28 melanoma) was over 100 µM. The TGI (NCI-H226 lung) was over 100 µM, the TGI (UO-31 renal) was over 100 µM and the TGI (A549 NSCLC) was over 100 µM. The TGI (OVCAR-3 ovarian) was over 100 µM, the TGI (PC-3 prostate) was 35.4 µM and the TGI (LOX IMVI melanoma) was 42.5 µM. It also gave a TGI (SK-OV-3 ovarian) of over 100 µM, a TGI (DU-145 prostate) of over 100 µM and a TGI (786-0 renal) of 33.3 µM. For the same molecule, the TGI (U251 CNS) was 34.6 µM, the TGI (SNB-19 CNS) was 56.5 µM and the TGI (KM12 colon) was over 100 µM. The TGI (MDA-MB-435) was over 100 µM, the TGI (SF-295 CNS) was over 100 µM and the TGI (A498 renal) was over 100 µM. It also gave a TGI (NCI/ADR-RES ovarian) of over 100 µM, a TGI (SF-268 CNS) of over 100 µM and a TGI (SK-MEL-5 melanoma) of over 100 µM. It also gave a TGI (NCI-H23 lung) of over 100 µM, a TGI (RPMI-8226 leukemia) of 74.2 µM and a TGI (T-47D breast) of over 100 µM. The TGI (UACC-257 melanoma) was over 100 µM, the TGI (BT-549 breast) was over 100 µM and the TGI (OVCAR-8 ovarian) was over 100 µM. The TGI (RXF 393 renal) was 40.8 µM, the TGI (SK-MEL-2 melanoma) was over 100 µM and the TGI (NCI-H460 lung) was 30.9 µM. The TGI (HCT-15 colon) was over 100 µM.
CCOP(=O)(OCC)/C(C#N)=C/c1nccn1C gave a TGI (SW-620 colon) of over 100 µM, a TGI (ACHN renal) of over 100 µM and a TGI (MDA-N) of over 100 µM. For the same molecule, the TGI (MOLT-4 leukemia) was over 100 µM, the TGI (MDA-MB-231 breast) was over 100 µM and the TGI (SNB-75 CNS) was over 100 µM. For the same molecule, the TGI (K-562 leukemia) was over 100 µM, the TGI (HL-60(TB) leukemia) was over 100 µM and the TGI (CCRF-CEM leukemia) was over 100 µM. The TGI (HS 578T breast) was over 100 µM, the TGI (EKVX NSCLC) was over 100 µM and the TGI (COLO 205 colon) was over 100 µM. It also gave a TGI (SN12C renal) of over 100 µM, a TGI (MCF7 breast) of over 100 µM and a TGI (HT29 colon) of over 100 µM. It also gave a TGI (HCC-2998 colon) of over 100 µM, a TGI (HOP-92 NSCLC) of over 100 µM and a TGI (M14 melanoma) of over 100 µM. The TGI (OVCAR-5 ovarian) was over 100 µM, the TGI (HOP-62 NSCLC) was over 100 µM and the TGI (NCI-H522 lung) was over 100 µM. For the same molecule, the TGI (TK-10 renal) was over 100 µM, the TGI (HCT-116 colon) was over 100 µM and the TGI (SF-539 CNS) was over 100 µM. It also gave a TGI (SK-MEL-28 melanoma) of over 100 µM, a TGI (NCI-H226 lung) of over 100 µM and a TGI (UO-31 renal) of over 100 µM. For the same molecule, the TGI (A549 NSCLC) was over 100 µM, the TGI (OVCAR-3 ovarian) was over 100 µM and the TGI (PC-3 prostate) was over 100 µM. It also gave a TGI (LOX IMVI melanoma) of over 100 µM, a TGI (DU-145 prostate) of over 100 µM and a TGI (SR leukemia) of over 100 µM. The TGI (786-0 renal) was over 100 µM, the TGI (U251 CNS) was over 100 µM and the TGI (SNB-19 CNS) was over 100 µM. The TGI (KM12 colon) was over 100 µM, the TGI (MDA-MB-435) was over 100 µM and the TGI (SF-295 CNS) was over 100 µM. For the same molecule, the TGI (A498 renal) was over 100 µM, the TGI (NCI/ADR-RES ovarian) was over 100 µM and the TGI (SF-268 CNS) was over 100 µM. For the same molecule, the TGI (NCI-H23 lung) was over 100 µM, the TGI (RPMI-8226 leukemia) was over 100 µM and the TGI (T-47D breast) was over 100 µM. It also gave a TGI (UACC-257 melanoma) of over 100 µM, a TGI (BT-549 breast) of over 100 µM and a TGI (OVCAR-8 ovarian) of over 100 µM. For the same molecule, the TGI (SK-MEL-2 melanoma) was over 100 µM, the TGI (NCI-H460 lung) was over 100 µM and the TGI (HCT-15 colon) was over 100 µM.
